ChEMBL document CHEMBL5614417, “Discovery of AMPs from random peptides via deep learning-based model and biological activity validation” (Eur J Med Chem, 2024)
Converted amounts (≈) assume the structure as drawn. The source made the active and inactive calls. No cut-off for these calls is given here. Where a SMILES comes first, the peptide text is derived from it.

What was measured:
[1] = test system: Staphylococcus aureus; assay: Induction of resistance development against Staphylococcus aureus assessed as fold increase in MIC after 21 passages; type: functional
[2] = test system: Cell membrane; assay: Disruption of outer membrane integrity in Escherichia coli assessed as increase in fluorescence intensity by measuring NPN uptake at 1 to 4 times MIC by fluorescence based analysis; type: cell membranes; conditions: TDE = time-dependent effect
[3] = test system: Escherichia coli; assay: Antibacterial activity against Escherichia coli ATCC 25922 incubated for 18 hrs in presence of 50 mM NaCl by visual inspection method; type: functional
[4] = test system: Acinetobacter baumannii; assay: Antibacterial activity against Acinetobacter baumannii ATCC 19606 incubated for 18 hrs by visual inspection method; type: functional
[5] = test system: Cell membrane; assay: Induction of cell membrane damage in Escherichia coli assessed as change in morphology by measuring numerous blebs covered membrane at 4 times MIC incubated for 5 hrs by SEM analysis; type: cell membranes
[6] = test system: Cell membrane; assay: Induction of cell membrane damage in Staphylococcus aureus assessed as decrease in red/green fluorescence ratio at 2 times MIC by DiOC2(3) fluorescent probe based assay; type: cell membranes
[7] = test system: Cell membrane; assay: Induction of cell membrane damage in Staphylococcus aureus at 4 times MIC incubated for 30 mins by PI staining based confocal laser scanning microscopic analysis; type: cell membranes
[8] = test system: Cell membrane; assay: Induction of inner membrane permeability in Escherichia coli ML-35 measured every 5 mins for 90 mins by ONPG dye based assay; type: cell membranes
[9] = test system: Cell membrane; assay: Induction of cell membrane damage in Escherichia coli assessed as change in morphology by measuring roughened membrane at 4 times MIC incubated for 5 hrs by SEM analysis; type: cell membranes
[10] = test system: Staphylococcus aureus; assay: Antibacterial activity against Staphylococcus aureus ATCC 25923 incubated for 18 hrs by visual inspection method; type: functional
[11] = test system: Klebsiella pneumoniae; assay: Antibacterial activity against Klebsiella pneumoniae ATCC 700603 incubated for 18 hrs by visual inspection method; type: functional
[12] = test system: Acinetobacter baumannii; assay: Antibacterial activity against multidrug resistant Acinetobacter baumannii 5 incubated for 18 hrs by visual inspection method; type: functional
[13] = test system: Staphylococcus aureus; assay: Antibacterial activity against methicillin resistant Staphylococcus aureus 4 incubated for 18 hrs by visual inspection method; type: functional
[14] = Hemolytic activity in rat erythrocytes at 1000 ug/ml incubated for 1 hr; type: toxicity, cell-based, Erythrocyte; conditions: at 1000 µg/mL, read-out: Activity
[15] = test system: Erythrocyte; assay: Hemolytic activity in rat erythrocytes at 500 to 1000 ug/ml incubated for 1 hr; type: toxicity, cell-based; conditions: dose 500-1000 µg/ml
[16] = test system: Cell membrane; assay: Induction of inner membrane permeability in Escherichia coli ML-35 at 1 to 4 times MIC by ONPG dye based assay; type: cell membranes; conditions: TDE = time-dependent effect
[17] = test system: Staphylococcus epidermidis; assay: Antibacterial activity against Staphylococcus epidermidis ATCC 12228 incubated for 18 hrs by visual inspection method; type: functional
[18] = test system: Escherichia coli; assay: Antibacterial activity against ESBL Escherichia coli 2 incubated for 18 hrs by visual inspection method; type: functional
[19] = test system: Staphylococcus aureus; assay: Antibacterial activity against Staphylococcus aureus ATCC 25923 incubated for 18 hrs in presence of 100 mM NaCl by visual inspection method; type: functional
[20] = test system: Bacillus subtilis; assay: Antibacterial activity against Bacillus subtilis ATCC 23857 incubated for 18 hrs by visual inspection method; type: functional
[21] = test system: Staphylococcus aureus; assay: Antibacterial activity against methicillin resistant Staphylococcus aureus 2 incubated for 18 hrs by visual inspection method; type: functional
[22] = test system: Acinetobacter baumannii; assay: Antibacterial activity against multidrug resistant Acinetobacter baumannii 4 incubated for 18 hrs by visual inspection method; type: functional
[23] = test system: Cell membrane; assay: Induction of cell membrane damage in Staphylococcus aureus assessed as change in morphology by measuring deformed membrane at 4 times MIC incubated for 5 hrs by SEM analysis; type: cell membranes
[24] = test system: Cell membrane; assay: Induction of cell membrane damage in Staphylococcus aureus assessed as change in morphology by measuring numerous blebs covered membrane at 4 times MIC incubated for 5 hrs by SEM analysis; type: cell membranes
[25] = test system: Cell membrane; assay: Disruption of outer membrane integrity in Escherichia coli assessed as increase in fluorescence intensity by measuring NPN uptake measured every min for 15 mins by fluorescence based analysis; type: cell membranes
[26] = test system: Cell membrane; assay: Induction of cell membrane damage in Staphylococcus aureus assessed as change in morphology by measuring roughened membrane at 4 times MIC incubated for 5 hrs by SEM analysis; type: cell membranes
[27] = test system: Erythrocyte; assay: Hemolytic activity in rat erythrocytes incubated for 1 hr; type: toxicity, cell-based
[28] = test system: Acinetobacter baumannii; assay: Antibacterial activity against multidrug resistant Acinetobacter baumannii 1 incubated for 18 hrs by visual inspection method; type: functional
[29] = test system: Cell membrane; assay: Induction of cell membrane damage in Staphylococcus aureus assessed as decrease in red/green fluorescence ratio by DiOC2(3) fluorescent probe based assay; type: cell membranes
[30] = test system: Escherichia coli; assay: Antibacterial activity against ESBL Escherichia coli 5 incubated for 18 hrs by visual inspection method; type: functional
[31] = test system: Escherichia coli; assay: Antibacterial activity against Escherichia coli ATCC 25922 incubated for 18 hrs by visual inspection method; type: functional
[32] = test system: Staphylococcus aureus; assay: Antibacterial activity against methicillin resistant Staphylococcus aureus 3 incubated for 18 hrs by visual inspection method; type: functional
[33] = test system: Staphylococcus aureus; assay: Antibacterial activity against methicillin resistant Staphylococcus aureus 1 incubated for 18 hrs by visual inspection method; type: functional
[34] = Stability in Sprague-Dawley rat serum at 62.5 ug/ml measured upto 480 mins by RP-HPLC method; type: ADME, cell-free; conditions: 8 h, at 62.5 µg/mL
[35] = test system: Acinetobacter baumannii; assay: Antibacterial activity against multidrug resistant Acinetobacter baumannii 2 incubated for 18 hrs by visual inspection method; type: functional
[36] = test system: Erythrocyte; assay: Hemolytic activity in rat erythrocytes at 250 ug/ml incubated for 1 hr; type: toxicity, cell-based; conditions: dose 250 µg/ml
[37] = test system: Escherichia coli; assay: Antibacterial activity against ESBL Escherichia coli 4 incubated for 18 hrs by visual inspection method; type: functional
[38] = test system: Escherichia coli; assay: Antibacterial activity against ESBL Escherichia coli 3 incubated for 18 hrs by visual inspection method; type: functional
[39] = test system: Cell membrane; assay: Induction of cell membrane damage in Escherichia coli at 4 times MIC incubated for 30 mins by PI staining based confocal laser scanning microscopic analysis; type: cell membranes
[40] = test system: Escherichia coli; assay: Antibacterial activity against Escherichia coli ATCC 25922 incubated for 18 hrs in presence of 100 mM NaCl by visual inspection method; type: functional
[41] = test system: Escherichia coli; assay: Antibacterial activity against Escherichia coli ATCC 25922 incubated for 18 hrs in presence of 150 mM NaCl by visual inspection method; type: functional
[42] = test system: Staphylococcus aureus; assay: Antibacterial activity against Staphylococcus aureus ATCC 25923 incubated for 18 hrs in presence of 150 mM NaCl by visual inspection method; type: functional
[43] = test system: Acinetobacter baumannii; assay: Antibacterial activity against multidrug resistant Acinetobacter baumannii 3 incubated for 18 hrs by visual inspection method; type: functional
[44] = test system: Escherichia coli; assay: Antibacterial activity against ESBL Escherichia coli 1 incubated for 18 hrs by visual inspection method; type: functional
[45] = test system: Cell membrane; assay: Induction of cell membrane damage in Escherichia coli assessed as change in morphology by measuring deformed membrane at 4 times MIC incubated for 5 hrs by SEM analysis; type: cell membranes
[46] = test system: Staphylococcus aureus; assay: Antibacterial activity against Staphylococcus aureus ATCC 25923 incubated for 18 hrs in presence of 50 mM NaCl by visual inspection method; type: functional

Structure (SMILES): O=C(O)c1cn(C2CC2)c2cc(N3CCNCC3)c(F)cc2c1=O
- fold change (FC) [1]: 16

Structure (SMILES): CC[C@H](C)[C@H](NC(=O)[C@@H](N)CCCNC(=N)N)C(=O)NCC(=O)N[C@@H](Cc1c[nH]c2ccccc12)C(=O)N[C@@H](CS)C(=O)N[C@@H](C)C(=O)N[C@@H](Cc1c[nH]c2ccccc12)C(=O)N[C@@H](CC(C)C)C(=O)N[C@@H](CC(C)C)C(=O)N[C@@H](CCCCN)C(=O)N[C@@H](CC(N)=O)C(=O)N[C@@H](CCCCN)C(=O)N[C@@H](C)C(N)=O (H-RIGWCAWLLKNKA-NH2)
- Activity [2]: Tde
- MIC [3]: 30 µg/mL
- MIC [4]: 15 µg/mL (≈ 9.63 µM)
- Activity [5]: Active
- Activity [6]: Active
- Activity [7]: Active
- Activity [8]: Dose-Dependent Effect
- Activity [9]: Active
- MIC [10]: 60 µg/mL (≈ 38.5 µM)
- MIC [11]: 60 µg/mL (≈ 38.5 µM)
- MIC [12]: 15 µg/mL (≈ 9.63 µM)
- MIC [13]: 60 µg/mL (≈ 38.5 µM)
- hemolysis at 1 h, 1000 ug/ml [14]: 8.18%
- Activity [15]: Toxic
- Activity [16]: Tde
- MIC [17]: 15 µg/mL (≈ 9.63 µM)
- MIC [18]: 30 µg/mL (≈ 19.3 µM)
- MIC [19]: 60 µg/mL
- MIC [20]: 15 µg/mL (≈ 9.63 µM)
- MIC [21]: 60 µg/mL (≈ 38.5 µM)
- MIC [22]: 15 µg/mL (≈ 9.63 µM)
- Activity [23]: Active
- Activity [24]: Active
- Activity [25]: Dose-Dependent Effect
- Activity [26]: Active
- HC5 [27]: 779.41 µg/mL
- MIC [28]: 15 µg/mL (≈ 9.63 µM)
- Activity [29]: Dose-Dependent Effect
- MIC [30]: 30 µg/mL (≈ 19.3 µM)
- MIC [31]: 30 µg/mL (≈ 19.3 µM)
- MIC [32]: 60 µg/mL (≈ 38.5 µM)
- MIC [33]: 60 µg/mL (≈ 38.5 µM)
- Stability [34]: Unstable
- MIC [35]: 15 µg/mL (≈ 9.63 µM)
- Activity [36]: Non-Toxic
- MIC [37]: 30 µg/mL (≈ 19.3 µM)
- MIC [38]: 30 µg/mL (≈ 19.3 µM)
- Activity [39]: Active
- MIC [40]: 30 µg/mL
- MIC [41]: 30 µg/mL
- MIC [42]: 60 µg/mL
- MIC [43]: 15 µg/mL (≈ 9.63 µM)
- MIC [44]: 30 µg/mL (≈ 19.3 µM)
- Activity [45]: Active
- MIC [46]: 60 µg/mL
